# Tested on: soybean plants containing event EE-GM4
# Experiment: HPPD inhibitor herbicide tolerance field trials (maximum phytotoxicity)
# Assay type: in vivo, Glycine max
# Conditions: for tolerance of plants with EE-GM4 to herbicide: field; for average maximum phytotoxicity value: several field trials across 2 years
# Excerpt: Numbers in ( ) below a treatment give the number of trials included in the bar, the number on top of each bar gives the average maximum phytotoxicity value for that treatment. Treatments applied were: IFT=isoxaflutole, MST=mesotrione, PE=pre-emergence, PO=post-emergence (at V2-V3 stage, with adjuvants crop oil concentrate and ammonium sulfate added to increase herbicide activity). Rates shown are in gram active ingredient/hectare (4× dose in pre-emergence, 2× dose in post-emergence).
# Tolerance of plants comprising EE-GM4 to HPPD inhibitor herbicides was tested at different locations in the field over 2 years. […] All post-emergence treatments were at the V2-V3 stage, with adjuvants crop oil concentrate and ammonium sulfate added to increase herbicide activity.
# The “maximum phytotoxicity” as used herein is the highest phytotoxicity rating recorded at any observation during the duration of a trial (with 3 to 4 observations per trial). In existing weed control applications, a normal (lx) dose for isoxaflutole (IFT) in pre- or post-emergence application and for MST in post-emergence application is 105 gr/ha, and a normal (1×) dose for mesotrione in pre-emergence application is 210 gr/ha.
# Also, in several field trials across 2 years, soybean plants with event EE-GM4 had good tolerance towards experimental HPPD inhibitor compound 2-methyl-N-(5-methyl-1,3,4-oxadiazol-2-yl)-3-(methylsulfonyl)-4-(trifluoromethyl)benzamide (U.S. Pat. No. 9,101,141) when applied pre-emergence at 400 gr ai/ha or post-emergence at 200 gr ai/ha, respectively (the average maximum phytotoxicity value for each treatment was below 20%). […] All post-emergence treatments were at the V2-V3 stage, with adjuvants crop oil concentrate and ammonium sulfate added to increase herbicide activity.
# [1] = applied post-emergence at V2-V3 stage with crop oil concentrate and ammonium sulfate, over 2 years
# [2] = applied pre-emergence, different locations over 2 years
Compound,tolerance of plants with EE-GM4 to herbicide [1],tolerance of plants with EE-GM4 to herbicide [2],"average maximum phytotoxicity (post-emergence at 100-150 gr ai/ha, V2-V3 stage with adjuvants) [%]","average maximum phytotoxicity value (post-emergence at 200 gr ai/ha, V2-V3 stage with adjuvants)",average maximum phytotoxicity value (pre-emergence at 400 gr ai/ha)
"CS(=O)(=O)c1ccc(C(=O)C2C(=O)CCCC2=O)c([N+](=O)[O-])c1 [mesotrione, 2-[4-(Methylsulfonyl)-2-nitrobenzoyl]cyclohexane-1,3-dione]",commercially relevant tolerance,commercially relevant tolerance,,,
CSc1c(C(F)(F)F)ccc(C(=O)Nc2nnnn2C)c1Cl [2-chloro-3-(methylsulfanyl)-N-(1-methyl-1H-tetrazol-5-yl)-4-(trifluoromethyl)benzamide],,,30,,
"Cc1nnc(NC(=O)c2ccc(C(F)(F)F)c(S(C)(=O)=O)c2C)o1 [2-methyl-N-(5-methyl-1,3,4-oxadiazol-2-yl)-3-(methylsulfonyl)-4-(trifluoromethyl)benzamide]",,,,below 20%,below 20%
"CS(=O)(=O)c1cc(C(F)(F)F)ccc1C(=O)c1cnoc1C1CC1 [isoxaflutole, (5-cyclopropyl-4-isoxazolyl)[2-(methylsulfonyl)-4-(trifluoromethyl)phenyl]methanone]",crop damage was a bit higher,commercially relevant tolerance,,,

# Source: US11242539B2, “Elite event EE-GM4 and methods and kits for identifying such event in biological samples” (priority 2016, dated 2022)
